Reference: patent publication US20070031520A1, “Method of using ajoene as alcohol dehydrogenase inhibitor, composition for removing hangover comprising ajoene and method of preparing the same” (priority 2005, published 2007)

Tested on: human ADH
Assay: cloned human ADH assay (NADH absorbance at 340 nm)
Type: biochemical
Conditions: for ADH inhibitory activity (%): 0.1 M glycine buffer pH 10, 2.4 mM NAD+, 33 mM ethanol
Method: ADH inhibitory activity of ajoene obtained in Example 1 was examined by means of a cloned human ADH assay wherein human ADH is treated with ajoene at different concentrations, and the results are shown in Table 1 below. Here, the ADH assay employed 0.1 M glycine buffer (pH 10) as a reaction buffer and 2.4 mM NAD^+ and 33 mM ethanol in a subtrate. ADH inhibitory activity was determined by measuring the absorbance of NADH at 340 nm using a microplate reader.

inhibitory concentration of 50% (IC50) on ADH activity (cloned human ADH, from Table 1): 0.9 µg/mL
SMILES: C=CCSSC=CC[S+]([O-])CC=C (stereo not shown) [ajoene, 4,5,9-trithiadodeca-1,6,11-triene-9-oxide]
ADH inhibitory activity (%) (ajoene 0.1 μg/ml): 0% | ADH inhibitory activity (%) (ajoene 0.9 μg/ml): 50% | ADH inhibitory activity (%) (ajoene 1 μg/ml): 60% | ADH inhibitory activity (%) (ajoene 10 μg/ml): 85% | ADH inhibitory activity (%) (ajoene 50 μg/ml): 100% | ADH inhibitory activity (%) (ajoene 100 μg/ml): 100%
